Assay results: patent publication US10132795B2, “Method for evaluating or selecting agent for suppressing GIP level elevation” (Kao Corporation, priority 2014, dated 2018)

Legend:
[1] = system: blood GIP and triglyceride (TG) concentrations; test: Single-dose administration test in mice (lipid emulsion load after FABP4/5 inhibitor); assay type: in vivo, mice (C57BL/6J); conditions: 30 mg/kg body weight intragastric
Procedure: Mice (C57BL/6J, male, 9 weeks old, n=4 to 5, CLEA Japan, Inc.) were fasted for 18 hours and then given intragastric administration of the FABP4/5 inhibitor BMS309403 (30 mg/kg body weight) in a solvent (10% 1-methyl-2-pyrrolione, 5% cremophor, and 2% ethanol) or only the solvent (control) through feeding needles under anesthesia. After 30 minutes, intragastric administration of lipid emulsions (triolein; 2 mg/kg body weight) was given. Blood was collected from the orbital sinus before and 10, 30, and 60 minutes after the administration of lipid emulsions. The blood thus collected was centrifuged at 11,000 rpm, 4° C. for 10 minutes to prepare the plasma. The blood GIP and triglyceride (TG) concentrations were measured with a GIP ELISA kit (for rat/mouse) (Merck Millipore Corporation) and a triglyceride E-test Wako (Wako Pure Chemical Industries, Ltd.), respectively.

[2] = system: primary culture cells of the small intestine; test: FABP4/5 inhibition test: lipid micelle (PPM)-stimulated GIP secretion in primary culture cells of the small intestine; assay type: cell-based, C57BL/6J mice; conditions: inhibitor 10 or 25 μM, 30 min pre-incubation and 30 min PPM stimulation; compared to PPM group; FIG. 3
Excerpt: C57BL/6J mice, 13 to 17 weeks old, were euthanized by cervical dislocation under anesthesia. The upper part of the small intestine (up to 10 cm immediately below the pylorus) was taken out and immersed in ice-cooled L-15 media (Sigma-Aldrich Co. LLC.). The small intestine was then transferred to ice-cooled PBS. Fat, blood vessels, etc. adhering to the intestinal tract were carefully removed. The inside of the lumen was washed with ice-cooled PBS and the tissue was cut into small pieces (pieces having an area of 2 mm^2 or smaller) with a scalpel. The small pieces were washed three to four times with PBS, to which 10 mL of DMEM (Sigma-Aldrich Co. LLC.) having Collagenase XI (Sigma-Aldrich Co. LLC.; 0.4 mg/mL) dissolved therein was added, followed by vigorous shaking for 10 seconds and then incubation at 37° C. for five minutes. The supernatants were then removed and 10 mL of the Collagenase solution was added again, followed by vigorous shaking for 10 seconds and then incubation at 37° C. for five minutes. […]
The media thus collected were centrifuged at 8,000 rpm, 4° C. for five minutes to obtain supernatants (secretion samples). […] GIP was quantitated in these samples with a GIP ELISA kit (for rat/mouse) (Merck Millipore Corporation) to obtain GIP secretion rates.

[3] = system: mouse model of type-II diabetes or arteriosclerosis; conditions: oral administration; Non Patent Literature 18; cited from earlier work
[4] = 30 min before lipid emulsion, compared to control group, FIG. 2B
[5] = 30 min before triolein lipid emulsion, blood at 10, 30, 60 min, compared to control (solvent) group, FIG. 2A

In the case of `CCc1c(-c2ccccc2)c(-c2ccccc2)nn1-c1ccccc1-c1cccc(OCC(=O)O)c1` [BMS309403], the “Cmax of the blood GIP concentration” value [1, 4] is reported as “statistically significantly reduced”, the “iAUC (0-1 h) of the blood GIP concentration” value [1, 4] is reported as “statistically significantly reduced” and the “increase in the blood GIP concentration (ΔGIP) after the administration of lipid emulsions” value [1, 5] is reported as “statistically significantly reduced”. The “increase in the blood TG concentration (ΔTG) after the administration of lipid emulsions” value [1, 5] was “statistically significantly reduced”, the “increase in the GIP secretion rate of PPM-stimulated cells” value [2] was “dose-dependently suppressed” and the “pathological condition in mouse model of type-II diabetes or arteriosclerosis” value [3] was “Amelioration in the pathological condition”.
